What was measured:
astrocytes = test: Oxygen consumption rates (mitochondrial respiration) in astrocytes; format: cell-based
Excerpt: Oxygen consumption rates (OCR) and maximal consumption rates are shown for indicated S3QEL2 concentrations and time points. Antimycin and rotenone were used as positive controls to inhibit mitochondrial respiration. ***p<0.001 vs. vehicle, two-way repeated measures ANOVA with Dunnett's multiple comparisons test.

primary astrocytes = test: Intracellular ATP levels in primary astrocytes; format: cell-based
Excerpt: Antimycin A and myxothiazol were used as positive controls to inhibit mitochondrial respiration and ATP production. n=3 wells per condition. ***p<0.001 vs. vehicle, mixed-effects model with Dunnett's multiple comparisons test.

| Compound | Mitochondrial respiration (oxygen consumption rates, OCR) (astrocytes) | Intracellular ATP levels (primary astrocytes) |
| --- | --- | --- |
| C=C(C)[C@H]1Cc2c(ccc3c2O[C@@H]2COc4cc(OC)c(OC)cc4[C@@H]2C3=O)O1 [rotenone] | greatly reduce |  |
| CO/C(=C/C(N)=O)[C@H](C)[C@H](/C=C/c1csc(-c2csc([C@@H](C)/C=C/C=C/C(C)C)n2)n1)OC [myxothiazol] |  | greatly reduce |
| antimycin A | greatly reduce | greatly reduce |

— US20240058344A1, “METHODS OF TREATING NEURODEGENERATIVE DISORDERS AND STAT3-LINKED CANCERS USING SUPPRESSORS OF ELECTRON LEAK” (Cornell University, priority 2020, published 2024)
